{
  "source": "paper doi:10.1101/2020.07.01.182642v1",
  "about": "(biorxiv, 2020)",
  "settings_in_all_cases": "binder",
  "key": {"[1]": {"target": "PAK4 (Homo sapiens, UniProt O96013)"}, "[2]": {"target": "CAMK1D (Homo sapiens, UniProt Q8IU85)", "sequence (Q8IU85 whole entry)": "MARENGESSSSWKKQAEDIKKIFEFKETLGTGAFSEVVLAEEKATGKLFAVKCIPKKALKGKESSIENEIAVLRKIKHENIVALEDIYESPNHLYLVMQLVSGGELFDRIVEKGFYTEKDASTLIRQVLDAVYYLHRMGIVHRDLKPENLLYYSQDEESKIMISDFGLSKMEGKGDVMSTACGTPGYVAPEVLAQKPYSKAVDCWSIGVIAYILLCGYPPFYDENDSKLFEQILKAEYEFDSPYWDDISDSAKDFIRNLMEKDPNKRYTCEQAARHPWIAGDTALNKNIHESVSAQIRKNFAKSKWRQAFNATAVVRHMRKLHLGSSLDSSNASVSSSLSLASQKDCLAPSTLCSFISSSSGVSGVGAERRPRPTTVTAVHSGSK"}, "[3]": {"target": "CDK16 (Homo sapiens, UniProt Q00536)"}, "[4]": {"target": "CAMK2A (Homo sapiens, UniProt Q9UQM7)", "sequence (Q9UQM7 whole entry)": "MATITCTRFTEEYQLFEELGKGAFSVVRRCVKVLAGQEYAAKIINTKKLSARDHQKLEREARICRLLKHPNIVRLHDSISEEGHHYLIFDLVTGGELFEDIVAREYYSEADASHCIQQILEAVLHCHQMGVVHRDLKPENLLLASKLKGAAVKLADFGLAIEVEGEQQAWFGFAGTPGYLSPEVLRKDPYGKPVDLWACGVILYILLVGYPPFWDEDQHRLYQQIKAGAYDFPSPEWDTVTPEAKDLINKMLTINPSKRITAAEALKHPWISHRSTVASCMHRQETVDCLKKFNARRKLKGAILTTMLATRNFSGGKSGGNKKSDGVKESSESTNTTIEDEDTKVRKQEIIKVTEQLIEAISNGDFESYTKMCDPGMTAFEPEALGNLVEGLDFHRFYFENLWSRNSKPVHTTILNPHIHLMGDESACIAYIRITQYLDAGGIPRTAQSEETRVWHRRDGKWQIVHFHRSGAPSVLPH"}, "[5]": {"target": "VRK2 (Homo sapiens, UniProt Q86Y07)", "sequence (Q86Y07 whole entry)": "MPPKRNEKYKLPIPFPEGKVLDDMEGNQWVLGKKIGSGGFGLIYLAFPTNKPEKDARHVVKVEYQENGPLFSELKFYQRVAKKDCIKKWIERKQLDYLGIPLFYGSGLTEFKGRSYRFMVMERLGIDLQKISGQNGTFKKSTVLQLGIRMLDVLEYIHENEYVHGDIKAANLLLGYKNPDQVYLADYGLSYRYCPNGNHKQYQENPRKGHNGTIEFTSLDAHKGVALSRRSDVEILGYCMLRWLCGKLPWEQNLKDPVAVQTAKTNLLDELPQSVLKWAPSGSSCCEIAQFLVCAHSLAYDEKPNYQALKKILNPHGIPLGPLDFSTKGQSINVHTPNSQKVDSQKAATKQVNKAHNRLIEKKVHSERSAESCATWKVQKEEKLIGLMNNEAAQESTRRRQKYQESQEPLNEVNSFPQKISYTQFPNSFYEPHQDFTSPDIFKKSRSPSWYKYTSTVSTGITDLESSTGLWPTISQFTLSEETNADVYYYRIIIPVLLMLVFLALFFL"}, "[6]": {"target": "PRKAA1 (Homo sapiens, UniProt Q13131)", "sequence (Q13131 whole entry)": "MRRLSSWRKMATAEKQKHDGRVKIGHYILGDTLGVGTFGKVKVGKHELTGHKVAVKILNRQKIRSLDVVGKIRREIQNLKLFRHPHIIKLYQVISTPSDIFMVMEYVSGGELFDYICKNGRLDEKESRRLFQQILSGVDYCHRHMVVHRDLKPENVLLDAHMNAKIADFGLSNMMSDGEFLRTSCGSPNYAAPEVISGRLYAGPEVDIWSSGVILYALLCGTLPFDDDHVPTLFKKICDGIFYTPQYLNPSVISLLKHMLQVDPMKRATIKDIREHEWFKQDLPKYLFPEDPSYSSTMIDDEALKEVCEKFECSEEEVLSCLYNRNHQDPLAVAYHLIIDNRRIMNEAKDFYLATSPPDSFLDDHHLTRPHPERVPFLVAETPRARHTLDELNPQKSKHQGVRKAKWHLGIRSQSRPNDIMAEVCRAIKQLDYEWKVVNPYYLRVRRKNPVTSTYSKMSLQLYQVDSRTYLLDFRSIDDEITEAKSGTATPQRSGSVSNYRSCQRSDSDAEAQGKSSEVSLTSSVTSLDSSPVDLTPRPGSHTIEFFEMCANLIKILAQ"}, "[7]": {"target": "T1, MYLK4 (Homo sapiens, UniProt Q86YV6)", "T1 sequence (Q86YV6 1-388)": "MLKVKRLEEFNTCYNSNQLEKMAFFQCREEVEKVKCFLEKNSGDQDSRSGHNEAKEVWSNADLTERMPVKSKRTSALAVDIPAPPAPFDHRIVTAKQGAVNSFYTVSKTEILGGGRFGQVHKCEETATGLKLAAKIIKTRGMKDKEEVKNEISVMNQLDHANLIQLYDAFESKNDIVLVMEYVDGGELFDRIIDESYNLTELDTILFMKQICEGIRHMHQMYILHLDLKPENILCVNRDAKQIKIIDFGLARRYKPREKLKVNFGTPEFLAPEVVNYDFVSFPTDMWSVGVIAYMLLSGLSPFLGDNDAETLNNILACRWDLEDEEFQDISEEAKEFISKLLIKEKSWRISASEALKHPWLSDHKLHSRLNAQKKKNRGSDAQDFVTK"}, "[8]": {"target": "T2, DYRK2 (Homo sapiens, UniProt Q92630)", "T2 sequence (Q92630 1-601)": "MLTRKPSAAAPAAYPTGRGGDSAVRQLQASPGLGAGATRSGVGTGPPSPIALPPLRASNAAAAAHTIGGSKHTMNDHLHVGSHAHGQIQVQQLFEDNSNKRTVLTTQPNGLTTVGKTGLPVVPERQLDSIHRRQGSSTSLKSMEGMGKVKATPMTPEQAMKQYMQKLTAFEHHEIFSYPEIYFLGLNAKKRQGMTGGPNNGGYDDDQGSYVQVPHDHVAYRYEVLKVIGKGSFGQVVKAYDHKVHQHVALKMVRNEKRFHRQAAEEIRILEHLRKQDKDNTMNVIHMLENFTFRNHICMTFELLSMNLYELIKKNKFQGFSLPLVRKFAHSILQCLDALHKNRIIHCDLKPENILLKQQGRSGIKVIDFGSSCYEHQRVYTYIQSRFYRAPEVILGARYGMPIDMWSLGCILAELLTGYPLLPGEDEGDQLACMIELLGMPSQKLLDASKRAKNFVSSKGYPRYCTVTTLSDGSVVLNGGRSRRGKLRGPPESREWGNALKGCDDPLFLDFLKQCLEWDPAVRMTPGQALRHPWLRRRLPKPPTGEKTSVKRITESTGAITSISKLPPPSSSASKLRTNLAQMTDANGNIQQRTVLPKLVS"}, "[9]": {"target": "STK16 (Homo sapiens, UniProt O75716)", "sequence (O75716 whole entry)": "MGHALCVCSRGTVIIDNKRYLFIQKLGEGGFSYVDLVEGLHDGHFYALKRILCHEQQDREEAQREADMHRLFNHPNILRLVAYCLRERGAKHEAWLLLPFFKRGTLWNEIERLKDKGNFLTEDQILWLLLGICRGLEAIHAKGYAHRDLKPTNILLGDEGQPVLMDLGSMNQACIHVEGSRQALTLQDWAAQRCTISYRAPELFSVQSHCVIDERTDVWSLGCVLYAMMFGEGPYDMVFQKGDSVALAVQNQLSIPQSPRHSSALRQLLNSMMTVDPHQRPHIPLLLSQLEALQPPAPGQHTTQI"}, "[10]": {"target": "CSNK2A1 (Homo sapiens, UniProt P68400)", "sequence (P68400 whole entry)": "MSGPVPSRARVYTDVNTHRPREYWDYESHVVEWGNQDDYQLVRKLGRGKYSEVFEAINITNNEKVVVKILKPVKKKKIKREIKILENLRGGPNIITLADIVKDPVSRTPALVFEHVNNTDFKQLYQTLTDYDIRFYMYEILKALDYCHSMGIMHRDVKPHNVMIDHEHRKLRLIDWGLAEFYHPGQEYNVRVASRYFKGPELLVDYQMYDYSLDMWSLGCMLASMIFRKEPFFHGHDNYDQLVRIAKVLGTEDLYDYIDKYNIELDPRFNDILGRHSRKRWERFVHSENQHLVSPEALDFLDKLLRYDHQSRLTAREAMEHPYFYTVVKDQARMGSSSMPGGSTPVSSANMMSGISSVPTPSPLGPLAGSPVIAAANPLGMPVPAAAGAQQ"}, "[11]": {"target": "RPS6KA6 (Homo sapiens, UniProt Q9UK32)", "sequence (Q9UK32 whole entry)": "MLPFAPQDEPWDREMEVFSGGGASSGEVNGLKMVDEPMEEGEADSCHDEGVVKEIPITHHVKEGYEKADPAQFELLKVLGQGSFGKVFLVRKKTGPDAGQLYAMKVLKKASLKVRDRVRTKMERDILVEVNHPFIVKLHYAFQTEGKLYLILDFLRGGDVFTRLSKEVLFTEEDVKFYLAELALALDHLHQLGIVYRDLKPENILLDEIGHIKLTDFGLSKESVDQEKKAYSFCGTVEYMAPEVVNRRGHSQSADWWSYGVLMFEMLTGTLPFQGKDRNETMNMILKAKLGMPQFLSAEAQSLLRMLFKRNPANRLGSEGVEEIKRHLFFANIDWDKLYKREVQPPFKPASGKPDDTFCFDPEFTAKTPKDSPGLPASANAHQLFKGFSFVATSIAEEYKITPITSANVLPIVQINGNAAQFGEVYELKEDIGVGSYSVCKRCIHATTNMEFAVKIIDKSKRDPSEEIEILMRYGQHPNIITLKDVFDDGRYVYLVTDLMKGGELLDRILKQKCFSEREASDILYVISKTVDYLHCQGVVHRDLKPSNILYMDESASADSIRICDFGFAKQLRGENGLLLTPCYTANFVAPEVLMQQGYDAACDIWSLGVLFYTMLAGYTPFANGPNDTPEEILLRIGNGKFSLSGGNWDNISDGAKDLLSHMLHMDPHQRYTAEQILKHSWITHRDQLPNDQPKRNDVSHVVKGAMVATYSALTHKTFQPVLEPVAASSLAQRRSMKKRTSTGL"}, "[12]": {"target": "STK10 (Homo sapiens, UniProt O94804)", "sequence (O94804 whole entry)": "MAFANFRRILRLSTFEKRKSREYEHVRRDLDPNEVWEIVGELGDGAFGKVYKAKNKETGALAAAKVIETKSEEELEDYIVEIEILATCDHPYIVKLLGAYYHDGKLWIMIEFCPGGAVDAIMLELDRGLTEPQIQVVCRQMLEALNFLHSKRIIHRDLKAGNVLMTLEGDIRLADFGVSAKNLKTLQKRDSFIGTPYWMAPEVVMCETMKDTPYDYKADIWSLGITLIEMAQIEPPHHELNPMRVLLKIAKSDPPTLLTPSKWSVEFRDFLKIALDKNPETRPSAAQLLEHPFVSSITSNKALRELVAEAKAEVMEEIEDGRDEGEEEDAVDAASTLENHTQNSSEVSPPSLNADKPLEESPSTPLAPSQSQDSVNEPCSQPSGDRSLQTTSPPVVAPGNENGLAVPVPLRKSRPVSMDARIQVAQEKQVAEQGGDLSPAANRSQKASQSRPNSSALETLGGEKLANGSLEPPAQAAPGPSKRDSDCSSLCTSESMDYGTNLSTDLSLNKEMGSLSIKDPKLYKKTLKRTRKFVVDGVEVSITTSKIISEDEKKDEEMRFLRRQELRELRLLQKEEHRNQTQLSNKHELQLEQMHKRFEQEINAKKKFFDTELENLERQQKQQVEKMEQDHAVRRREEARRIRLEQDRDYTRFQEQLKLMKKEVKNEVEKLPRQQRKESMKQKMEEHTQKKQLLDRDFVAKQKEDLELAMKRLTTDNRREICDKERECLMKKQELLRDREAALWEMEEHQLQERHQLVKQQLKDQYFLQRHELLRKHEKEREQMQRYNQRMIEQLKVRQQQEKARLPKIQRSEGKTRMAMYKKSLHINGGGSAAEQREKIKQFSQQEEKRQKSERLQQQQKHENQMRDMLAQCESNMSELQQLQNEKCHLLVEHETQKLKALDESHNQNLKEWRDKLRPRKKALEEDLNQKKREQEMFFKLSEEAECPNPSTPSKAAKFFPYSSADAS"}, "[13]": {"target": "MAP2K2 (Homo sapiens, UniProt P36507)"}, "[14]": {"target": "PLK1 (Homo sapiens, UniProt P53350)", "sequence (P53350 whole entry)": "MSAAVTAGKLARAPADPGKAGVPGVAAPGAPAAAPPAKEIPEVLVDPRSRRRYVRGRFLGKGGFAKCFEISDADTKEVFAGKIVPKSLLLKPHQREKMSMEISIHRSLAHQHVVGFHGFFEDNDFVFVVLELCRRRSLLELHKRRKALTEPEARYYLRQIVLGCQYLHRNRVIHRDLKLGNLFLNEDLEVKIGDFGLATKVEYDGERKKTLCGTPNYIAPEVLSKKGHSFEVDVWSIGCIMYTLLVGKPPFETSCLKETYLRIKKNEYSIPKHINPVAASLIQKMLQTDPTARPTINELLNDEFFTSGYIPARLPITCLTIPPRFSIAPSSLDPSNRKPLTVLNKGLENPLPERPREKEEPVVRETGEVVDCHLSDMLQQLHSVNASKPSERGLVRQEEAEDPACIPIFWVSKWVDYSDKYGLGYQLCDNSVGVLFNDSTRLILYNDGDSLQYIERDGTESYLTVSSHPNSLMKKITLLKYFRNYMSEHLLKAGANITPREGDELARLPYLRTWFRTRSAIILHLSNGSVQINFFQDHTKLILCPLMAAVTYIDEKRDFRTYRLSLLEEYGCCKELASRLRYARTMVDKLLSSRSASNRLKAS"}, "[15]": {"target": "T3, STK17B (Homo sapiens, UniProt O94768)", "T3 sequence (O94768 1-372)": "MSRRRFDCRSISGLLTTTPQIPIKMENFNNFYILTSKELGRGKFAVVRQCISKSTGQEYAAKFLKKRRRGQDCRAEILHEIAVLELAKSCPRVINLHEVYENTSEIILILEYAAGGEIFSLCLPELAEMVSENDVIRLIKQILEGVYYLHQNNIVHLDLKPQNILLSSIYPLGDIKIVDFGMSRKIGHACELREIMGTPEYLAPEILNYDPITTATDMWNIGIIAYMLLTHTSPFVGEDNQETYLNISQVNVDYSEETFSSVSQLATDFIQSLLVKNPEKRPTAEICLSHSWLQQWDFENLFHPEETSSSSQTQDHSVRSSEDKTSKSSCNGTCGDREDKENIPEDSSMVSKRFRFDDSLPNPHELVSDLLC"}, "[16]": {"target": "CDK2 (Homo sapiens, UniProt P24941)"}, "[17]": {"target": "RPS6KA1 (Homo sapiens, UniProt Q15418)"}, "[18]": {"target": "STK26 (Homo sapiens, UniProt Q9P289)"}},
  "data": [
    {"smiles": "CCN1/C(=C/C(C)=O)Sc2ccc(OC)cc21", "note": "[compound 2, TG003]", "values": [
      {"measurement": "ΔTm inhibitor 2", "setting": "[1]", "result": 1.7, "unit": "°C"},
      {"measurement": "ΔTm inhibitor 2", "setting": "[2]", "result": 0.0, "unit": "°C"},
      {"measurement": "ΔTm inhibitor 2", "setting": "[3]", "result": -0.4, "unit": "°C"},
      {"measurement": "ΔTm inhibitor 2", "setting": "[4]", "result": -0.1, "unit": "°C"},
      {"measurement": "ΔTm inhibitor 2", "setting": "[5]", "result": 0.2, "unit": "°C"},
      {"measurement": "ΔTm inhibitor 2", "setting": "[6]", "result": -0.3, "unit": "°C"},
      {"measurement": "ΔTm inhibitor 2", "setting": "[7]", "result": 0.9, "unit": "°C"},
      {"measurement": "ΔTm inhibitor 2", "setting": "[8]", "result": 7.3, "unit": "°C"},
      {"measurement": "ΔTm inhibitor 2", "setting": "[9]", "result": 0.2, "unit": "°C"},
      {"measurement": "ΔTm inhibitor 2", "setting": "[10]", "result": 2.6, "unit": "°C"},
      {"measurement": "ΔTm inhibitor 2", "setting": "[11]", "result": 0.4, "unit": "°C"},
      {"measurement": "ΔTm inhibitor 2", "setting": "[12]", "result": 0.8, "unit": "°C"},
      {"measurement": "ΔTm inhibitor 2", "setting": "[13]", "result": 0.5, "unit": "°C"},
      {"measurement": "ΔTm inhibitor 2", "setting": "[14]", "result": 0.3, "unit": "°C"},
      {"measurement": "ΔTm inhibitor 2", "setting": "[15]", "result": 1.0, "unit": "°C"},
      {"measurement": "ΔTm inhibitor 2", "setting": "[16]", "result": -0.1, "unit": "°C"},
      {"measurement": "ΔTm inhibitor 2", "setting": "[17]", "result": 0.6, "unit": "°C"},
      {"measurement": "ΔTm inhibitor 2", "setting": "[18]", "result": -0.3, "unit": "°C"}
    ]},
    {"smiles": "CC(=O)c1cccc(-c2cnc3ccc(NCC4CC4)nn23)c1", "note": "[compound 1, K00135]", "values": [
      {"measurement": "ΔTm inhibitor 1", "setting": "[1]", "result": 1.5, "unit": "°C"},
      {"measurement": "ΔTm inhibitor 1", "setting": "[2]", "result": 0.6, "unit": "°C"},
      {"measurement": "ΔTm inhibitor 1", "setting": "[3]", "result": 0.5, "unit": "°C"},
      {"measurement": "ΔTm inhibitor 1", "setting": "[4]", "result": 0.5, "unit": "°C"},
      {"measurement": "ΔTm inhibitor 1", "setting": "[5]", "result": 1.5, "unit": "°C"},
      {"measurement": "ΔTm inhibitor 1", "setting": "[6]", "result": 1.3, "unit": "°C"},
      {"measurement": "ΔTm inhibitor 1", "setting": "[7]", "result": 5.8, "unit": "°C"},
      {"measurement": "ΔTm inhibitor 1", "setting": "[8]", "result": 4.1, "unit": "°C"},
      {"measurement": "ΔTm inhibitor 1", "setting": "[9]", "result": 2.3, "unit": "°C"},
      {"measurement": "ΔTm inhibitor 1", "setting": "[10]", "result": 3.3, "unit": "°C"},
      {"measurement": "ΔTm inhibitor 1", "setting": "[11]", "result": 4.2, "unit": "°C"},
      {"measurement": "ΔTm inhibitor 1", "setting": "[12]", "result": 3.3, "unit": "°C"},
      {"measurement": "ΔTm inhibitor 1", "setting": "[13]", "result": 2, "unit": "°C"},
      {"measurement": "ΔTm inhibitor 1", "setting": "[14]", "result": 2.0, "unit": "°C"},
      {"measurement": "ΔTm inhibitor 1", "setting": "[15]", "result": 4.2, "unit": "°C"},
      {"measurement": "ΔTm inhibitor 1", "setting": "[16]", "result": 1.5, "unit": "°C"},
      {"measurement": "ΔTm inhibitor 1", "setting": "[17]", "result": 5.2, "unit": "°C"},
      {"measurement": "ΔTm inhibitor 1", "setting": "[18]", "result": 0.3, "unit": "°C"}
    ]},
    {"smiles": "Nc1nccc(-c2ccc3noc(-c4ccc(Cl)cc4)c3c2)n1", "note": "[compound 4, K00972]", "values": [
      {"measurement": "ΔTm inhibitor 4", "setting": "[1]", "result": 1.5, "unit": "°C"},
      {"measurement": "ΔTm inhibitor 4", "setting": "[2]", "result": 0.2, "unit": "°C"},
      {"measurement": "ΔTm inhibitor 4", "setting": "[3]", "result": 1.2, "unit": "°C"},
      {"measurement": "ΔTm inhibitor 4", "setting": "[4]", "result": 0.1, "unit": "°C"},
      {"measurement": "ΔTm inhibitor 4", "setting": "[5]", "result": 0.0, "unit": "°C"},
      {"measurement": "ΔTm inhibitor 4", "setting": "[6]", "result": 0.5, "unit": "°C"},
      {"measurement": "ΔTm inhibitor 4", "setting": "[7]", "result": 3.9, "unit": "°C"},
      {"measurement": "ΔTm inhibitor 4", "setting": "[8]", "result": 8.9, "unit": "°C"},
      {"measurement": "ΔTm inhibitor 4", "setting": "[9]", "result": 3.5, "unit": "°C"},
      {"measurement": "ΔTm inhibitor 4", "setting": "[10]", "result": 0.2, "unit": "°C"},
      {"measurement": "ΔTm inhibitor 4", "setting": "[11]", "result": 2.1, "unit": "°C"},
      {"measurement": "ΔTm inhibitor 4", "setting": "[12]", "result": 1.9, "unit": "°C"},
      {"measurement": "ΔTm inhibitor 4", "setting": "[13]", "result": 0.1, "unit": "°C"},
      {"measurement": "ΔTm inhibitor 4", "setting": "[14]", "result": 0.4, "unit": "°C"},
      {"measurement": "ΔTm inhibitor 4", "setting": "[15]", "result": 6.9, "unit": "°C"},
      {"measurement": "ΔTm inhibitor 4", "setting": "[16]", "result": 0.3, "unit": "°C"},
      {"measurement": "ΔTm inhibitor 4", "setting": "[17]", "result": 0.6, "unit": "°C"},
      {"measurement": "ΔTm inhibitor 4", "setting": "[18]", "result": 0.1, "unit": "°C"}
    ]}
  ]
}
